Read-outs that look alike come from different tables or passages of the source.
How the values were obtained:
[1] = system: histamine level of the plasma
Source text: (§1) Photographs of the ulcer and biopsies of the stomach mucosa were taken before and after each week of treatment.

[2] = system: histamine levels in the fundus, corpus and antrum mucosa; settings: 4 weeks
Source text: as §1

[3] = system: gastric ulcers induced in rats by immobilisation; settings: intraperitoneal; expressed in terms of dry (+)-catechin; immobilised 12 hours
Procedure: (a) on ulcers induced by stress caused by immobilization: After one week adaptation to the environment, female rats, (30 animals per group, 5 per cage), were immobilised during 12 hours by wrapping them, under narcosis with ether, in a plaster bandage.
After sacrifice of the animals, the dissected stomach was visually inspected and the lesions of the mucosa were scored according to their number and their intensity.
The products to be tested were administered, immediately before the test, by intraperitoneal injection of 2 ml of a freshly prepared saline solution. The doses tested varied from 0.1 to 50 mg/kg. The controls received 2 ml of saline.

[4] = system: stress induced gastric ulcers; settings: 30 mg/kg oral, 3 times a day during 3 days; immobilisation 12 hours; control group 38%
Procedure: The tested product was given 3 times a day during the 3 days preceding the experiment. The last administration was given 1 hour before immobilisation of the rats during 12 hours.

[5] = system: necrosis of the gastric mucosa induced by acetic acid; settings: 150 mg/kg orally, twice a day during 5 days
Procedure: In rats fasted for 24 hours, necrosis of the gastric mucosa was induced by intra-gastric administration of acetic acid (1 ml at 20%) one hour before treatment.
Accordingly the rats were sacrified, the stomach mucosa was photographed and the lesions were scored.

[6] = system: human duodenal ulcer; settings: after 1 month of treatment, 1500 mg daily
Source text: as §1

[7] = system: intragastric pH; settings: in vivo
Source text: as §1

[8] = system: leucocytes; settings: preincubation 10 minutes at 37° C., pollen or house dust 30 minutes
Procedure: Then the histamin level was measured in the leucocyte suspension and the supernatant liquid and compared to the values obtained from the controls.

[9] = system: histamine level in lung tissue; settings: 30 mg/kg per os, 3 times a day during 3 days; five hours after the last treatment
Procedure: The drug was administered per os as a suspension in carboxymethyl cellulose (1% in water).

[10] = system: rat peritoneal mastocytes; settings: 10^-50 M (so in the source); 48/80 stimulated; 37° C., 10 minutes
[11] = system: rat peritoneal mastocytes; settings: 30 mg/kg per os, 3 times a day during 3 days; 0.5 μg/ml compound 48/80, 10 minutes at 37° C.
[12] = system: histamine content in rat stomach mucosa; settings: 30 mg/kg intraperitoneal
[13] = system: histamine content in the lungs; settings: 30 mg/kg intraperitoneal
[14] = system: histamine level of the mucosa of the fundus, of the corpus and of the antrum; settings: 3 days, healthy persons
[15] = target: T1, histidine decarboxylase (Oryctolagus cuniculus, UniProt G1TCH4); test: inhibition of histidine decarboxylase extracted from rabbit stomach, in vitro; settings: read-out: IC50, inhibition of histidine decarboxylase, enzyme extracted from rabbit stomach
T1 sequence (G1TCH4 1-661): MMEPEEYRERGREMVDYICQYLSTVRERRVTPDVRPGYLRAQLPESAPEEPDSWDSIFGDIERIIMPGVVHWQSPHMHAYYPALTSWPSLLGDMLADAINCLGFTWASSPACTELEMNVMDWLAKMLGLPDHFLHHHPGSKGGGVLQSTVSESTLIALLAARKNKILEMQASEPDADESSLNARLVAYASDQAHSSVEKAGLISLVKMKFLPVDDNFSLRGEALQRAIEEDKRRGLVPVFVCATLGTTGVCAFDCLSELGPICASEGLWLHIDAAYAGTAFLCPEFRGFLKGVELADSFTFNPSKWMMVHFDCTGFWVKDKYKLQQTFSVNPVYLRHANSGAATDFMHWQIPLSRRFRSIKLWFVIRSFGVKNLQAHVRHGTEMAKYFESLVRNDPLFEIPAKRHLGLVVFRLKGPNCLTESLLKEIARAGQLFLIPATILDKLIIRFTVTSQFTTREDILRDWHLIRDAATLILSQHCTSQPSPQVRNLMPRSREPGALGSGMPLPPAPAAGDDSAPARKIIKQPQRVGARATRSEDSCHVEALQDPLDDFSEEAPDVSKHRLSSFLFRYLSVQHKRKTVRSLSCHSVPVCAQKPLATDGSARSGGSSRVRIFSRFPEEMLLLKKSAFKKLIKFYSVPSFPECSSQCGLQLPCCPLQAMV

[16] = 1500 mg daily, duodenal ulcer patients

CN/C(=N/CCSCc1nc[nH]c1C)NC#N [cimetidine, reference compound] was tested, and the “effect on the histamine levels in the plasma” value ([1]; 800 mg cimetidine daily, 4 weeks) was “no notable effect or induced an increase”, the “increase of the histamine levels in the plasma” value ([1]; in some cases, 800 mg cimetidine daily, 4 weeks) was “more than 10%” and the “effect on the histamine levels in the stomach mucosa” value ([2]; 800 mg cimetidine daily) was “no notable effect or induced an increase”. The “increase of the histamine levels in the stomach mucosa” value ([2]; in some cases, 800 mg cimetidine daily) was “more than 10%”.
In the case of (+)-catechin hydrochlorolysinate, the “ED50 in the gastric ulcers induced in rats by immobilisation” value [3] is reported as 5 mg/kg, the “proportion of rats with severe lesions” value [4] is reported as 15% and the “reduction of the number of animals with severe lesions” value [5] is reported as 50%. The “mean histamine level of the plasma after treatment” value ([1]; 1500 mg daily, decreased from 0.7 (±0.3) ng/ml, observed after one week, constant during the following 3 weeks) was 0.3 (±0.1) ng/ml, the “decrease of the histamine levels in the fundus, corpus and antrum mucosa” value [2, 16] was about 20% and the “decrease of the number of mastocytes in the fundus, corpus and antrum mucosa” value [2, 16] was about 20%. The “ulcer diameter of the other (not fully recovered) patients” value [6] was “decreased significantly”, the patients fully recovered ([6]; out of 11) was 7 patients and the “effect on the intragastric pH” value [7] was “no effect”. The “release inhibition, leucocytes” value ([8]; 10^-5 M) was 45%, the “release inhibition, leucocytes” value ([8]; 10^-6 M) was 45% and the “decrease of the histamine level in the homogenized lung tissue compared to the control group” value [9] was 38%. The “inhibition of release of histamine from rat peritoneal mastocytes” value [10] was 27%, the “decrease of histamine release of the mastocytes compared to the controls” value [11] was 22% and the “decrease of the histamine content in rat stomach mucosa” value [12] was 33%. The “decrease of the histamine content in the lungs” value [13] was 38%, the number of mastocytes ([14]; 500, 1000 or 1500 mg per day per os, same way as the histamine level) was “decreased in the same way” and the “decrease of the histamine level of the mucosa of the fundus, of the corpus and of the antrum” value ([14]; highest dose (1500 mg per day), per os, dose dependent) was 30%. It also gave an IC50 [15] of 100 µM.
(+)-catechin ascorbolysinate was tested, and the “ED50 in the gastric ulcers induced in rats by immobilisation” value [3] was 1.5 mg/kg.

From US4507314A, “Drug for treating affections provoked by a too high histamine level, of the gastroduodenal mucosa and allergic affections” (Midit, Societe Fiduciaire, priority 1983, dated 1985)
